Source: PMC3745399, “An NO Donor Approach to Neuroprotective and Procognitive Estrogen Therapy Overcomes Loss of NO Synthase Function and Potentially Thrombotic Risk” (PLoS ONE, 2013)
Read-outs that look alike come from different tables or passages of the source.

Key:
ERα = target: T1, ERα (Homo sapiens, UniProt P03372); test: ER binding affinity by competitive E2 displacement (ERα)
T1 sequence (P03372 1-595): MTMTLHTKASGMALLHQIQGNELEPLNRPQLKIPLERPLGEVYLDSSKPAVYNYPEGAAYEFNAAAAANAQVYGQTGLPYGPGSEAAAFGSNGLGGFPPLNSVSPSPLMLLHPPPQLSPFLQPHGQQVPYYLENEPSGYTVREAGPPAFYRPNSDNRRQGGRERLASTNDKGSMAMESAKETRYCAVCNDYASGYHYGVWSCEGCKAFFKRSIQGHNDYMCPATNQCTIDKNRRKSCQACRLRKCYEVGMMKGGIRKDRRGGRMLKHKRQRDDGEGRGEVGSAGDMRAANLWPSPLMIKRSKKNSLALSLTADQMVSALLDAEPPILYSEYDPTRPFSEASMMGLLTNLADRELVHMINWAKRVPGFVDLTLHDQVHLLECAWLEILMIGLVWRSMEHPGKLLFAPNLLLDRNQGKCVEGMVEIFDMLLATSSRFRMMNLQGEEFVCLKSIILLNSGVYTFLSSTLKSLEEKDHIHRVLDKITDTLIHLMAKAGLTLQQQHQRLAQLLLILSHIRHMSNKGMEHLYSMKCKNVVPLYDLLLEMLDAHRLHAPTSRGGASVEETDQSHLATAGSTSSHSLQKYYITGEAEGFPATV
Procedure: ER binding affinity was measured by competitive E2 displacement as previously described.

ERβ = ERβ (Homo sapiens, UniProt Q92731); test: ER binding affinity by competitive E2 displacement (ERβ)
ERβ, sequence (Q92731 whole entry, species assumed): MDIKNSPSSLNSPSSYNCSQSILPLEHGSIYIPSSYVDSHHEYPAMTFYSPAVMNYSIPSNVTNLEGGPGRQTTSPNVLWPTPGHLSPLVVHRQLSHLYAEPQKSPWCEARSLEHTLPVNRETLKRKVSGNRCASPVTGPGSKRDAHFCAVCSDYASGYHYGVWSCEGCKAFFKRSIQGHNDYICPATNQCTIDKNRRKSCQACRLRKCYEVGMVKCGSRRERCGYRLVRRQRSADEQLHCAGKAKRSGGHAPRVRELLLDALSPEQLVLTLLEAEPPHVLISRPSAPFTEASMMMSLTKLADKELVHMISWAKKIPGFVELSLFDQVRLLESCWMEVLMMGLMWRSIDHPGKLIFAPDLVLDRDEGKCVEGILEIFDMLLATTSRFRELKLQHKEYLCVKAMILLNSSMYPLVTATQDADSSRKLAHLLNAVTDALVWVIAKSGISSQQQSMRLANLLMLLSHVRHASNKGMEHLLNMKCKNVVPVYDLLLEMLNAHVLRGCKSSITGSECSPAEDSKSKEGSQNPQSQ
Procedure: Raloxifene and DMA are structurally related SERMs acting as antagonists of estrogen action in mammary and endometrial cells. […] ER binding affinity was measured by competitive E2 displacement as previously described.

[1] = tested on: primary cortical neurons exposed to OGD; test: Neuroprotection in oxygen glucose deprivation (OGD), MTT; assay type: cell-based, rat; details: for neuroprotection with G15: 100 nM SERM + G15 100 nM (GPR30 antagonist); for neuroprotection with L-NAME: 100 nM SERM + L-NAME 100 µM (NOS antagonist), whether it attenuated neuroprotective activity; for neuroprotection with LY294002: 100 nM SERM + LY294002 10 µM (PI3K inhibitor); for neuroprotection with pertussis toxin: 100 nM SERM + pertussis toxin 100 ng/mL; for neuroprotection (cell survival by MTT): 100 nM, 2 h OGD, 24 h, no blocker, normalized to E2 10 nM (100%) and vehicle (0%)
Procedure: Primary neuronal cultures were subjected to 2 h OGD with compounds added at the start of OGD and inhibitors added 45 min prior to OGD. Cell survival was measured at 24 h.
Primary cultures of dissociated cortical neurons were prepared as follows; briefly, cortices were dissected from E16-18 Sprague-Dawley rats (Charles River). After removal of meninges, cortices were manually dissociated and plated at a density of 10^6 cells/mL into 96-well plates. Twenty-four hours after plating, cultures were grown in Neurobasal A media supplemented with B27, glutamine and pen/strep, with media changes every 3–4 days. In accordance with published protocols, measured levels of glia in culture after DIV2 are <0.5%. Experiments were performed at DIV 11–12.
The cell media was changed to phenol red-free growing media at least 3 h before OGD. Receptor blockers were added 45 min prior to the start of OGD, and SERMs were added at the start of OGD, with concentrations maintained through media changes. For OGD, the cells were transferred to a hypoxia chamber controlled at 5% CO2 and <1% O2, and growth media was replaced with a physiological salt solution (in mM: NaCl 116, CaCl2 1.8, MgSO4 0.8, KCl 5.4, NaHCO3 14.7, NaHPO4 1, HEPES 10, pH = 7.4). After 2 h OGD, cells were removed from the chamber and growth media was replaced. After 24 h, cell viability was measured by MTT assay using a Dynex MRX ll micro-plate spectrophotometer.

isolated rings of aortae = test: Aortic ring relaxation; set-up: species or system rat
Procedure: Isolated rings of aortae from male Sprague-Dawley rats (250–300 g) were prepared for isometric tension measurements and were equilibrated for 1 h at an optimal resting tension of 10 mN. Tissues were contracted submaximally with 0.3 µM phenylepinephrine, and after 10–15 m cumulative concentration-response curves for SERMs (0.01–30 µM) were obtained. Some aortic ring preparations were denuded of the endothelium, or were treated with 100 µM L-NAME, prior to assessment of SERM-induced relaxation responses.

[2] = assay type: in vivo; details: mouse, ip, 5 mg/kg
Procedure: All experiments were performed on 6–8 month male C57B1/6 mice (Charles River Laboratory) or eNOS(−/−) animals. Animals were injected (i.p.) at various time points before sacrifice at the doses specified. After euthanasia via CO2, plasma was collected, and cortices and hippocampi were collected after PBS perfusion and stored at −80°C. Tissue samples were weighed and extracted with methanol. Plasma samples were extracted with cold acetonitrile. Quantitative analysis of drug concentrations in plasma and brain used internal standards spiked into plasma and brain homogenates before liquid extraction with acetonitrile or methanol, and separation and measurement was performed with LC-MS/MS tandem mass spectrometry. The supernatant (deproteinized) was analyzed by chemiluminescence with SIEVERS 280i nitric oxide analyzer.
Figure S3: SERM bioavailability in plasma and CNS of WT and eNOS (-/-) mice. […] (n=4).

SMILES	IC50 (ERα) [nM]	IC50 (ERβ) [nM]	neuroprotection with G15 [1]	neuroprotection with ICI 182780 ([1]; 100 nM SERM + ICI 182780 100 nM, added 45 min prior to OGD)	neuroprotection with L-NAME [1]	neuroprotection with LY294002 [1]	neuroprotection with pertussis toxin [1]	neuroprotection (cell survival by MTT) [1]	EC50 (isolated rings of aortae; endothelium-denuded tissues, read-out: EC50 for relaxation, endothelium-denuded) [nM]	efficacy (maximal relaxation) (isolated rings of aortae; intact aortic rings) [% relaxation]	potency relative to DMA (isolated rings of aortae; intact aortic rings)	EC50 (isolated rings of aortae; intact aortic rings, read-out: EC50 for relaxation) [nM]	EC50 (isolated rings of aortae; tissues treated with L-NAME 100 µM, read-out: EC50 for relaxation, L-NAME) [nM]	EC50 (isolated rings of aortae; intact aortic rings contracted with phenylepinephrine, mean, S.D., read-out: EC50 for relaxation) [nM]	efficacy after endothelium removal or NOS inhibition (isolated rings of aortae; physical removal of the endothelium or L-NAME)	bioavailability in plasma and CNS ([2]; in vivo)	blood brain barrier permeability [2]
O=[N+]([O-])OCCCC1CCN(CCOc2ccc(Oc3c(-c4ccc(O)cc4)sc4cc(O)ccc34)cc2)CC1 [NO-DMA, 3-(1-(2-(4-(6-hydroxy-2-(4-ydroxyphenyl)benzo[b]thiophen-3-yloxy)phenoxy)ethyl)piperidin-4-yl)propyl nitrate]	21.4 ± 6.7	24.4 ± 9.6	blocked the neuroprotective activity	did not block this effect	did not	attenuated neuroprotective activity	blocked the neuroprotective activity	robust neuroprotection identical to DMA	900 ± 690	~100	at least ten-fold increased potency	130 ± 90	1000 ± 540				
Oc1ccc(-c2sc3cc(O)ccc3c2Oc2ccc(OCCN3CCCCC3)cc2)cc1 [DMA, desmethylarzoxifene]		9.6 ± 1.9	blocked the neuroprotective activity		did not	attenuated neuroprotective activity	blocked the neuroprotective activity	robust neuroprotection		~100				3500 ± 2500	significant decrease in the efficacy	substantial bioavailability with preferential retention in the hippocampus up to 2 h after administration	substantial blood brain barrier permeability
